Measured values published in patent EP0641564A1, “OPTICALLY ACTIVE CONDENSED PYRAZOLE COMPOUND FOR USE IN TREATING THROMBOCYTOPENIA AND ERYTHROPENIA” (YOSHITOMI PHARMACEUTICAL INDUSTRIES, LTD., priority 1992, dated 1993).

How the values were obtained:
rats = assay: Acute toxicity test; format: in vivo; details: orally administered to rats, dose of 1000 mg/kg
Protocol: Experimental Example 9 : Acute toxicity test
Compound A, Compound B or Compound C was orally administered to rats. As a result, no death case was found at a dose of 1000 mg/kg.

[1] = test system: mice administered with cyclophosphamide; assay: Stimulating action on recovery of leukocyte count (cyclophosphamide-treated mice); format: in vivo, ICR mice; details: for Leukocyte count: cyclophosphamide 200 mg/kg i.p., day 4; for Increase in leukocyte count: relative ratio to count of mice administered with cyclophosphamide (=100)
Protocol: Experimental Example 7 : Stimulating action on recovery of leukocyte count
ICR mice (20-25 g body weight) were intraperitoneally administered with 200 mg/kg of cyclophosphamide and the compound of the present invention was intravenously administered for 3 days starting from the next day of the administration. On day 4 after the cyclophosphamide administration, the blood of the ICR mice was taken and leukocyte count was measured using Coulter counter. The relative ratio of the count to the peripheral leukocyte count of the mice administered with cyclophosphamide was calculated and expressed in percentage.

[2] = test system: mice transplanted with bone marrow; assay: Promoting action on recovery of leukocyte count in mice transplanted with bone marrow; format: in vivo, ICR mice; details: for Leukocyte count: X-irradiation (8.0 Gy)+bone marrow transplantation (day 0, 7, 14); for Leukocyte count / Increase in leukocyte count: day 38; for Increase in leukocyte count: relative ratio of increased count to decreased count of bone marrow transplanted mice
Protocol: Experimental Example 8 : Promoting action on recovery of leukocyte count in mice transplanted with bone marrow
ICR mice (6-8 weeks old) were exposed to 8.0 Gy total body irradiation and 10⁷ bone marrow cells from the mice of the same species were transplanted to the mice. The bone marrow transplantation was performed three times on day 0, day 7 and day 14. Then, the compound of the present invention was intravenously administered for 14 consecutive days starting from the next day of the first bone marrow transplantation. On day 38 after the first bone marrow transplantation, blood was taken and leukocyte count was measured using an automatic cell counter. The experiment was done with 5 mice per group. The relative ratio of the increased leukocyte count to the decreased leukocyte count of the mice transplanted with bone marrow was calculated and expressed in percentage.

[3] = test system: mice transplanted with bone marrow; assay: Promoting action on recovery of platelet count in mice transplanted with bone marrow; format: in vivo, ICR mice; details: day 11; for Platelet count: X-irradiation (8.0 Gy)+bone marrow transplantation; for Increase in platelet count: difference between untreated group and bone marrow transplanted group = 100%
From the text: Experimental Example 1 : Promoting action on recovery of platelet count in mice transplanted with bone marrow
(§1) ICR mice (6-8 weeks old) were exposed to 8.0 Gy total body irradiation and 10⁷ bone marrow cells from the mice of the same species were transplanted to the mice. Then, Compound A or Compound B was intravenously administered for 9 consecutive days starting from the next day of the bone marrow transplantation. On day 11 after the bone marrow transplantation, heparinized blood was taken from the abdominal aorta of mice and platelet count was measured using an automatic cell counter. The experiment was done with 5 mice per group. The difference in platelet count between an untreated group and the bone marrow transplanted group was taken as 100%, based on which increase in the platelet count was calculated.

[4] = test system: mice irradiated with X-rays; assay: Promoting action on recovery of erythrocyte count in mice irradiated with X-rays (preventive effects); format: in vivo, BALB/c mice; details: mean±SD
Protocol: Experimental Example 3 : Promoting action on recovery of erythrocyte count in mice irradiated with X-rays (preventive effects)
(§2) BALB/c mice (4-5 weeks old) were exposed to 4.0 Gy total body irradiation. Compound A was intravenously administered for 3 consecutive days starting from 3 days before and up to the previous day of the irradiation. On day 19 and day 22 after the X-ray irradiation, blood was taken from orbital vein plexus of mice and erythrocyte count was measured using an automatic cell counter. The experiment was done with 8 mice per group and the results are shown as mean value±standard deviation.

[5] = test system: mice irradiated with X-rays; assay: Promoting action on recovery of erythrocyte count in mice irradiated with X-rays (therapeutic effects); format: in vivo, BALB/c mice; details: day 14, mean±SD
Protocol: Experimental Example 4 : Promoting action on recovery of erythrocyte count in mice irradiated with X-rays (therapeutic effects)
as §2, with “for 9” for “for 3”, “from” for “from 3 days before and up to”, “the next” for “the previous”, “the X-ray irradiation to 9 days thereafter.” for “the irradiation.”, “day 14” for “day 19 and day 22”, “with 6” for “with 8”

[6] = test system: rats administered with anti-tumor drug; assay: Promoting action on recovery of decreased platelet count in rats administered with anti-tumor drug (nimustine hydrochloride); format: in vivo, SD rats; details: 1.0 mg/kg i.v. on day 8, 9, 10 and 14 after initial nimustine hydrochloride
Protocol: Experimental Example 2 : Promoting action on recovery of decreased platelet count in rats administered with anti-tumor drug
An anti-tumor drug, nimustine hydrochloride, (30 mg/kg) was intravenously administered to SD rats (6 weeks old) and 15 mg/kg thereof was intravenously administered the next day. Compound A was intravenously administered for 4 days on day 8, day 9, day 10 and day 14 after the initial administration of nimustine hydrochloride. On certain days after the administration, heparinized blood was taken from the rat tail vein and platelet count was measured using an automatic cell counter. The experiment was done with 4-6 rats per group.

[7] = test system: mice transplanted with bone marrow; assay: Promoting action on recovery of erythrocyte count in mice transplanted with bone marrow; format: in vivo, ICR mice; details: X-irradiation (8.0 Gy)+bone marrow transplantation, day 11
From the text: Experimental Example 5 : Promoting action on recovery of erythrocyte count in mice transplanted with bone marrow
as §1, with “A” for “A or Compound B”, “erythrocyte” for “platelet”, “group.” for “group. The difference in platelet count between an untreated group and the bone marrow transplanted group was taken as 100%, based on which increase in the platelet count was calculated.”

[8] = 0.01 mg/kg i.v. for 14 consecutive days
[9] = 0.1 mg/kg i.v. for 14 consecutive days
[10] = 0.01 mg/kg i.v. for 3 consecutive days before 4.0 Gy irradiation
[11] = 0.1 mg/kg i.v. for 3 consecutive days before 4.0 Gy irradiation
[12] = 1 mg/kg i.v. for 3 consecutive days before 4.0 Gy irradiation

CCOC(=O)Cn1nc(-c2ccc(O[C@@H](C)CN(C)C)cc2)c2cccnc21.Cl [Compound C, ethyl (S)-3-[4-(2-dimethylamino-1-methylethoxy)phenyl]-1H-pyrazolo[3,4-b]pyridine-1-acetate hydrochloride]
death cases (acute toxicity) (rats): no death case

C[C@@H](CN(C)C)Oc1ccc(-c2nn(CC(=O)O)c3ncccc23)cc1 [Comp. B, (S)-3-[4-(2-dimethylamino-1-methylethoxy)phenyl]-1H-pyrazolo[3,4-b]pyridine-1-acetic acid]
Leukocyte count ([1]; 0.003 mg/kg i.v. for 3 days): 19±5 10²/mm³ | Increase in leukocyte count ([1]; 0.003 mg/kg i.v.): 173% | Leukocyte count ([1]; 0.03 mg/kg i.v. for 3 days): 27±5 10²/mm³ | Increase in leukocyte count ([1]; 0.03 mg/kg i.v.): 245% | Leukocyte count ([1]; 0.3 mg/kg i.v. for 3 days): 30±6 10²/mm³ | Increase in leukocyte count ([1]; 0.3 mg/kg i.v.): 273% | strength of leukocyte count recovery effect relative to Compound A ([1]; cyclophosphamide-pretreated mice, comparison from Table 7): about three times stronger effect | death cases (acute toxicity) (rats): no death case | Leukocyte count [2, 8]: 76±10 10²/mm³ | Increase in leukocyte count ([2]; 0.01 mg/kg i.v.): 48% | Leukocyte count [2, 9]: 89±6 10²/mm³ | Increase in leukocyte count ([2]; 0.1 mg/kg i.v.): 69% | strength of leukocyte count recovery effect relative to Compound A ([2]; bone marrow transplanted mice, comparison from Table 8): about ten times stronger effect | Platelet count ([3]; Table 2, 0.01 mg/kg i.v. for 9 consecutive days): 45.9±6.7 10⁴/mm³ | Increase in platelet count ([3]; Table 2, 0.01 mg/kg i.v.): 65% | Platelet count ([3]; Table 2, 0.03 mg/kg i.v. for 9 consecutive days): 54.8±13.6 10⁴/mm³ | Increase in platelet count ([3]; Table 2, 0.03 mg/kg i.v.): 81%

CC(CN(C)C)Oc1ccc(-c2nn(CC(=O)O)c3ncccc23)cc1 (stereo not drawn) [Comp. A, 3-[4-(2-dimethylamino-1-methylethoxy)phenyl]-1H-pyrazolo[3,4-b]pyridine-1-acetic acid]
Erythrocyte count day 19 [4, 10]: 835±102 10⁴/mm³ | Erythrocyte count day 22 [4, 10]: 904±45 10⁴/mm³ | Erythrocyte count day 19 [4, 11]: 837±118 10⁴/mm³ | Erythrocyte count day 22 [4, 11]: 916±86 10⁴/mm³ | Erythrocyte count day 19 [4, 12]: 856±118 10⁴/mm³ | Erythrocyte count day 22 [4, 12]: 932±86 10⁴/mm³ | Erythrocyte count ([5]; 0.01 mg/kg i.v. for 9 consecutive days after 4.0 Gy irradiation): 535±98 10⁴/mm³ | Erythrocyte count ([5]; 0.1 mg/kg i.v. for 9 consecutive days after 4.0 Gy irradiation): 686±72 10⁴/mm³ | Platelet count day 25 ([6]; day 25): 17.7±21.8 10⁴/mm³ | Platelet count day 44 ([6]; day 44): 57.3±20.2 10⁴/mm³ | Leukocyte count ([1]; 0.01 mg/kg i.v. for 3 days): 18±8 10²/mm³ | Increase in leukocyte count ([1]; 0.01 mg/kg i.v.): 164% | Leukocyte count ([1]; 0.1 mg/kg i.v. for 3 days): 25±6 10²/mm³ | Increase in leukocyte count ([1]; 0.1 mg/kg i.v.): 227% | Leukocyte count ([1]; 1 mg/kg i.v. for 3 days): 30±6 10²/mm³ | Increase in leukocyte count ([1]; 1 mg/kg i.v.): 273% | death cases (acute toxicity) (rats): no death case | Erythrocyte count ([7]; 0.01 mg/kg i.v. for 9 consecutive days): 699±51 10⁴/mm³ | Erythrocyte count ([7]; 0.1 mg/kg i.v. for 9 consecutive days): 714±56 10⁴/mm³ | Leukocyte count [2, 8]: 65±7 10²/mm³ | Increase in leukocyte count ([2]; 0.01 mg/kg i.v.): 30% | Leukocyte count [2, 9]: 75±5 10²/mm³ | Increase in leukocyte count ([2]; 0.1 mg/kg i.v.): 46% | Leukocyte count ([2]; 1 mg/kg i.v. for 14 consecutive days): 81±4 10²/mm³ | Increase in leukocyte count ([2]; 1 mg/kg i.v.): 56% | Platelet count ([3]; Table 1, 0.01 mg/kg i.v. for 9 consecutive days): 27.4±9.6 10⁴/mm³ | Increase in platelet count ([3]; Table 1, 0.01 mg/kg i.v.): 30% | Platelet count ([3]; Table 1, 0.03 mg/kg i.v. for 9 consecutive days): 31.4±11.4 10⁴/mm³ | Increase in platelet count ([3]; Table 1, 0.03 mg/kg i.v.): 41% | Platelet count ([3]; Table 1, 0.1 mg/kg i.v. for 9 consecutive days): 42.3±10.6 10⁴/mm³ | Increase in platelet count ([3]; Table 1, 0.1 mg/kg i.v.): 71% | Platelet count ([3]; Table 1, 0.3 mg/kg i.v. for 9 consecutive days): 49.8±9.7 10⁴/mm³ | Increase in platelet count ([3]; Table 1, 0.3 mg/kg i.v.): 91%
